Measured values as given in patent publication US20230146455A1, “TREATMENT OF INFLAMMATORY DISEASES WITH PEPTIDES AND PHARMACEUTICAL COMPOSITIONS” (Yuyu Pharma, Inc., priority 2020, published 2023).
Where “and” joins values, the source holds several entries; their conditions need not be identical. Equal values may be shown once. Where a SMILES comes first, the peptide text is derived from it. [ ]: non-standard residue; d: D form. Hyp = O=C(O)[C@@H]1C[C@@H](O)CN1

Key:
[1] = PBMC cell counts (total, live, viability; trypan blue, Countess) with and without LPS and test articles (Example 9); type: cell-based, human; details: human, PBMCs, 24 hr
Outline: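 Human PBMCs were pretreated 2 h with test articles (0.001–100 uM) or 0.5% DMSO vehicle, then given LPS at 5 ug/ml or no LPS, in triplicate. After 24 hr, total and live cells and viability were counted by 1:1 trypan blue staining on an automated counter.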

CCL5/RANTES = assay: Example 9 Luminex, LPS hPBMCs: CCL5/RANTES; type: cell-based, human; details: PBMC + LPS(5 ug/ml)
Method: Treatment Human PBMCs were pretreated with YY-101, YDE-011 and YDE-043 or reference compound; Xiidra® at various concentration (ranging from 1 nM to 100 uM) for 2 h before stimulation. An equal volume of 0.5% DMSO was used as a vehicle control. Then, the cells were treated with LPS at 5 ug/ml. The supernatants from treated cells were harvested at 24 h and placed in a 96 well for Luminex cytokine & chemokine profiling using a Luminex 200 multiplex assay (Luminex; R&D system, USA).
The main study arm with triplicate wells per group in a 24-well plate: • 1. Blank • 2. PBMC: 0.5% DMSO • 3. PBMC+LPS (5 ug/ml) • 4. PBMC+YY-101 100 uM • 5. PBMC+YY-101 10 uM • 6. PBMC+YY-101 1 uM • 7. PBMC+YY-101 0.1 uM • 8. PBMC+YY-101 0.01 uM • 9. PBMC+LPS (5 ug/ml)+Xiidra®100 uM • 10. PBMC+LPS (5 ug/ml)+Xiidra® 10 uM • 11. PBMC+LPS (5 ug/ml)+Xiidra® 1 uM • 12. PBMC+LPS (5 ug/ml)+Xiidra®0.1 uM • 13. PBMC+LPS (5 ug/ml)+Xiidra®0.01 uM • 14. PBMC+LPS (5 ug/ml)+Xiidra®0.001 uM • 15. PBMC+LPS (5 ug/ml)+YY-101 100 uM • 16. PBMC+LPS (5 ug/ml)+YY-101 10 uM • 17. PBMC+LPS (5 ug/ml)+YY-101 1 uM • 18. PBMC+LPS (5 ug/ml)+YY-101 0.1 uM • 19. PBMC+LPS (5 ug/ml)+YY-101 0.01 uM • 20. PBMC+LPS (5 ug/ml)+YY-101 0.001 uM • 21. PBMC+LPS (5 ug/ml)+YDE-011 100 uM • 22. PBMC+LPS (5 ug/ml)+YDE-011 10 uM • 23. PBMC+LPS (5 ug/ml)+YDE-011 1 uM • 24. PBMC+LPS (5 ug/ml)+YDE-011 0.1 uM • 25. PBMC+LPS (5 ug/ml)+YDE-011 0.01 uM • 26. PBMC+LPS (5 ug/ml)+YDE-011 0.001 uM • 27. PBMC+LPS (5 ug/ml)+YDE-043 100 uM • 28. PBMC+LPS (5 ug/ml)+YDE-043 10 uM • 29. PBMC+LPS (5 ug/ml)+YDE-043 1 uM • 30. PBMC+LPS (5 ug/ml)+YDE-043 0.1 uM • 31. PBMC+LPS (5 ug/ml)+YDE-043 0.01 uM • 32. PBMC+LPS (5 ug/ml)+YDE-043 0.001 uM
Multiplex assay was used to measure 30 cytokines and chemokines. The 1:2, 1:10 and 1:200 diluted cell supernatant and serial dilution of the standard were dispensed into a 96 well plate at 50 ul/well. Then, the pre-mixed cocktail of antibody-coated magnetic beads was dispensed at 50 ul/well and incubated at room temperature for 2 h in a horizontal orbital microplate shaker at 800±500 rpm. The beads were washed using a magnetic device to prevent loss. The biotin-antibody was dispensed in 50 ul of each well and incubated at room temperature for 1 h in a shaker at 800±500 rpm. After washing, streptavidin-PE was added at 50 ul/well and incubated at room temperature for 30 min in a shaker under the same conditions. Finally, after washing, wash buffer (100 ul/well) was added to the plate and incubated in a shaker for 2 min. The Luminex™ 200 setting were set according to the manufacturer's protocol. The data was calculated with a standard five-parameter logistic nonlinear regression analysis of the data (xPonent software 4.2, USA). The levels of cytokine/chemokine are normalized to the live cell counts (1×10^5 cells/mL) and presented as concentrations per mL (pg/mL or ng/mL).

[2] = test article 0.001 uM, single replicates (1st, 2nd, 3rd)
[3] = test article 0.01 uM, single replicates (1st, 2nd, 3rd)
[4] = test article 0.1 uM, single replicates (1st, 2nd, 3rd)
[5] = test article 1 uM, single replicates (1st, 2nd, 3rd)

CC(C)C[C@H](NC(=O)CNC(=O)[C@H](CC(=O)O)NC(=O)[C@H](CCC(N)=O)NC(=O)CNC(=O)[C@@H]1C[C@@H](O)CN1)C(=O)N[C@@H](C)C(=O)NCC(=O)N1CCC[C@H]1C(=O)N[C@@H](CCCCN)C(=O)O [YY-101] (H-[Hyp]GQDGLAGPK-OH; N-terminus and C-terminus assumed)
viability at 24 h, 0.001 µM ([1]; PBMC + LPS(5 ug/ml) + compound 0.001 uM): 84.3 ± 2.6%
viability at 24 h, 0.01 µM ([1]; PBMC + LPS(5 ug/ml) + compound 0.01 uM): 77.3 ± 5%
viability at 24 h, 0.1 µM ([1]; PBMC + LPS(5 ug/ml) + compound 0.1 uM): 75.7 ± 4.7%
viability at 24 h, 1 µM ([1]; PBMC + LPS(5 ug/ml) + compound 1 uM): 66.7 ± 5.8%
viability at 24 h, 10 µM ([1]; PBMC + LPS(5 ug/ml) + compound 10 uM): 73.7 ± 4.8%
viability at 24 h, 100 µM ([1]; PBMC + LPS(5 ug/ml) + compound 100 uM): 76.7 ± 5.2%
viability at 24 h, 0.01 µM ([1]; PBMC + compound 0.01 uM, no LPS): 85 ± 2%
viability at 24 h, 0.1 µM ([1]; PBMC + compound 0.1 uM, no LPS): 84%
viability at 24 h, 1 µM ([1]; PBMC + compound 1 uM, no LPS): 89.5 ± 2.5%
viability at 24 h, 10 µM ([1]; PBMC + compound 10 uM, no LPS): 86 ± 1%
viability at 24 h, 100 µM ([1]; PBMC + compound 100 uM, no LPS): 86.5 ± 1.5%
Concentration (CCL5/RANTES) (CCL5/RANTES; test article 0.001 uM, Mean): 402.3 pg/mL
MFI (Bead name: CCL5/RANTES) (CCL5/RANTES; test article 0.001 uM, Mean): 1103.2
conc/live cell (CCL5/RANTES) (CCL5/RANTES; test article 0.001 uM, Mean): 62.7 pg/10^5
Concentration (CCL5/RANTES) (CCL5/RANTES; [2]): 407.4 pg/mL and 412.9 pg/mL and 386.6 pg/mL
MFI (Bead name: CCL5/RANTES) (CCL5/RANTES; [2]): 1120.5 and 1139.5 and 1049.5
conc/live cell (CCL5/RANTES) (CCL5/RANTES; [2]): 71.5 pg/10^5 and 58.2 pg/10^5 and 58.6 pg/10^5
Concentration (CCL5/RANTES) (CCL5/RANTES; test article 0.01 uM, Mean): 454.1 pg/mL
MFI (Bead name: CCL5/RANTES) (CCL5/RANTES; test article 0.01 uM, Mean): 1281.8
conc/live cell (CCL5/RANTES) (CCL5/RANTES; test article 0.01 uM, Mean): 73.6 pg/10^5
Concentration (CCL5/RANTES) (CCL5/RANTES; [3]): 476.2 pg/mL and 443.9 pg/mL and 442.2 pg/mL
MFI (Bead name: CCL5/RANTES) (CCL5/RANTES; [3]): 1358.5 and 1246.5 and 1240.5
conc/live cell (CCL5/RANTES) (CCL5/RANTES; [3]): 74.4 pg/10^5 and 74.0 pg/10^5 and 72.5 pg/10^5
Concentration (CCL5/RANTES) (CCL5/RANTES; test article 0.1 uM, Mean): 428.0 pg/mL
MFI (Bead name: CCL5/RANTES) (CCL5/RANTES; test article 0.1 uM, Mean): 1191.5
conc/live cell (CCL5/RANTES) (CCL5/RANTES; test article 0.1 uM, Mean): 73.5 pg/10^5
Concentration (CCL5/RANTES) (CCL5/RANTES; [4]): 432.4 pg/mL and 427.1 pg/mL and 424.5 pg/mL
MFI (Bead name: CCL5/RANTES) (CCL5/RANTES; [4]): 1206.5 and 1188.5 and 1179.5
conc/live cell (CCL5/RANTES) (CCL5/RANTES; [4]): 69.7 pg/10^5 and 82.1 pg/10^5 and 68.5 pg/10^5
Concentration (CCL5/RANTES) (CCL5/RANTES; test article 1 uM, Mean): 430.6 pg/mL
MFI (Bead name: CCL5/RANTES) (CCL5/RANTES; test article 1 uM, Mean): 1200.7
conc/live cell (CCL5/RANTES) (CCL5/RANTES; test article 1 uM, Mean): 66.2 pg/10^5
Concentration (CCL5/RANTES) (CCL5/RANTES; [5]): 456.2 pg/mL and 419.3 pg/mL and 416.4 pg/mL
MFI (Bead name: CCL5/RANTES) (CCL5/RANTES; [5]): 1289.0 and 1161.5 and 1151.5
conc/live cell (CCL5/RANTES) (CCL5/RANTES; [5]): 72.4 pg/10^5 and 59.1 pg/10^5 and 67.2 pg/10^5
Concentration (CCL5/RANTES) (CCL5/RANTES; test article 10 uM, Mean): 430.1 pg/mL
MFI (Bead name: CCL5/RANTES) (CCL5/RANTES; test article 10 uM, Mean): 1198.8
conc/live cell (CCL5/RANTES) (CCL5/RANTES; test article 10 uM, Mean): 65.2 pg/10^5
